Results on 16 compounds are retold here after PMC10974828, “Identification of Novel Flavonoids and Ansa-Macrolides with Activities against Leishmania donovani through Natural Product Library Screening” (Pathogens, 2024).

Series [1] deals with L. donovani promastigotes. The series can be described thus: L. donovani promastigote viability assay (resazurin). It is filed as cell-based. Particulars: Leishmania donovani; 72 h exposure, resazurin readout, two independent experiments; read-out: L. donovani Promastigote Inhibition IC50. The method, then:
The inhibition of L. donovani promastigote growth was assessed by measuring the conversion of resazurin to resorufin. The promastigotes were dispensed at a density of 5 × 10^4 L. donovani promastigotes per well into 384-well plates and exposed to the natural product library composed of 2562 molecules at 10 μM for 72 h. Following the incubation, resazurin sodium salt was added, and the plates were further incubated for 5 h before fixation using 4% paraformaldehyde. The results were then analyzed using a Victor3™ plate reader (PerkinElmer, Shelton, CT, USA) at an emission wavelength of 590 nm and an excitation wavelength of 530 nm. Amphotericin B and miltefosine served as reference drugs for inhibiting the growth of L. donovani promastigotes. The hits identified from the screening were confirmed by testing in a 10-point, 1/2 dilution manner starting from 400, 200, 100, or 50 μM (depending on the solubility and activity) in duplicates of two independent experiments to calculate the IC50 values.
(§1) All of the IC50 and the half-maximal cytotoxic concentration (CC50) values were calculated using two independent experiments. Outliers were excluded, and the dose–response curves were fitted using the GraphPad Prism V6.0 software (GraphPad Software, San Diego, CA, USA) by using a sigmoidal dose–response equation with a variable hill slope option.
For orientation: Alamar Blue is a resazurin reagent that responds to reducing activity.

In series [2] the test system is L. donovani intracellular amastigotes. The series can be described thus: Intracellular L. donovani amastigote assay in THP-1 cells (image-based). It is filed as cell-based, Leishmania donovani. Particulars: for IC50: Leishmania donovani, amastigotes in PMA-treated THP-1 cells, 72 h, read-out: Intracellular L. donovani Inhibition IC50; for Selectivity Index (SI): THP-1 CC50 / amastigotes IC50. The method, then:
(§2) PMA-treated THP-1 cells were seeded at 0.8 × 10^4 cells per well in a 384-well plate in RPMI-1640 complete medium supplemented with 10% FBS. After 48 h of incubation at 37 °C in the presence of 5% CO2, the L. donovani amastigotes, isolated from infected hamster liver, were added to the cell culture at a ratio of 10:1. The infected THP-1 cells were treated with screening compounds (the same set used in the promastigotes HTS) at 10 µM, with amphotericin B and miltefosine serving as positive controls and 0.5% DMSO as a negative control. After 72 h, the cells and parasites were washed, stained, and fixed with 5 µM DAPI and 4% PFA. Images were acquired through Operetta® CLS™ (PerkinElmer, Shelton, CT, USA), and the numbers of parasites, host cells, and infection ratios were quantified using the Columbus™ software (https://www.perkinelmer.com/product/image-data-storage-and-analysis-system-columbus, accessed on 7 February 2024) (PerkinElmer, Shelton, CT, USA). The hits identified from the screening were confirmed by testing in a 10-point, 1/2 dilution manner starting from 400, 200, 100, or 50 μM in duplicates of two independent experiments to calculate the IC50 values.
as §1

A further series concerns THP-1 cells. As to the kind of experiment: Host cell cytotoxicity in the intracellular Leishmania assay (THP-1 cell ratio). Particulars: host THP-1 cells in the intracellular assay, 72 h. It is filed as cell-based, Human. The method, then: as §2, §1
In series [3] the test system is L. donovani amastigotes. On the set-up: method as in PMID 30319238. Particulars: read-out: IC50 against L. donovani amastigotes; cited from earlier work.
For another series, the system named is T. brucei. On the set-up: method as in PMID 30319238. The settings on record: read-out: IC50 against T. brucei; cited from earlier work.
The next series has as its system L. infantum. The arrangement: method as in PMID 32441133. The settings on record: read-out: IC50 against L. infantum; cited from earlier work.
In series [4] the test system is intracellular amastigotes. The arrangement: method as in PMID 37091674. Particulars: read-out: IC50 against intracellular amastigotes; cited from earlier work.
A further series concerns hepatic parasites. The arrangement: method as in PMID 37091674. Particulars: murine model of visceral leishmaniasis; cited from earlier work.
For series [5], the system named is L. donovani amastigotes. On the set-up: method as in PMID 28498323. Particulars: read-out: IC50 against L. donovani amastigotes; cited from earlier work.
Another series has as its system Trypanosoma brucei. The arrangement: method as in PMID 28498323. Particulars: read-out: IC50 against Trypanosoma brucei; cited from earlier work.
The test system of another series is T. cruzi. The arrangement: method as in PMID 28498323. Particulars: read-out: IC50 against T. cruzi; cited from earlier work.
In series [6] the test system is eukaryotic RNA polymerase. On the set-up: method as in PMID 32342856. The settings on record: higher constant indicates lower affinity; cited from earlier work.

Values joined by “and” are separate entries in the source; they are usually repeats but may differ in a detail not shown here. Equal values may be shown once. Read-outs that look alike come from different tables or passages of the source.

As to `COC1C=COC2(C)Oc3c(C)c(OC(=O)c4ccccc4)c4c(c3C2=O)C(=O)C(N2CC(C)OC(C)C2)=C(NC(=O)C(C)=CC=CC(C)C(O)C(C)C(O)C(C)C(OC(C)=O)C1C)C4=O` (centres unmarked) [BMD-NP-02084], the IC50 – broadly, the concentration that inhibits the measured activity by half – in [1] was determined as 2.53 ± 0.14 µM. In addition, in series [2], the IC50 is 2.12 ± 0.4 µM and the “Selectivity Index (SI)” value is 5.9. Moreover, the “THP-1 Cell Ratio CC50” value in the series with THP-1 cells worked out at 12.45 ± 1.02 µM.
Take `CC(C)C1CC(=O)Oc2cc(O)c3c(=O)cc(-c4ccc(O)c(O)c4)oc3c21` (centres unmarked) [BMD-NP-01550]: the IC50 in [1] amounted to 23.5 ± 0.52 µM. Moreover, in [2], the IC50 was determined as 3.44 ± 0.64 µM and the “Selectivity Index (SI)” value is recorded as 6.1. In addition, the “THP-1 Cell Ratio CC50” value in the series on THP-1 cells is recorded as 20.84 ± 1.04 µM.
For the compound “methyl-ent-3β-hydroxylabd-8(17)-en-15-oate”, the figures for the 50% inhibitory concentration (IC50) in the series on L. donovani amastigotes [3] and with T. brucei were 7.82 µM and 3.84 µM, respectively.
With `CCCC1CC(=O)Oc2c(C(=O)C(C)C(C)O)c(O)c3c(c21)OC(C)(C)C=C3` (centres unmarked) [Calanolide E2], in the series on L. infantum, the half-inhibitory concentration (IC50) is 29.1 µM.
For `OC1C=C2CCN3Cc4cc5c(cc4C(C1O)C23)OCO5` (centres unmarked) [BMD-NP-00820], the IC50 in [1] turned out to be 3.99 ± 0.4 µM. Moreover, in series [2], the IC50 is 1.74 ± 0.27 µM and the “Selectivity Index (SI)” value is given as above 28.7. Besides, in the series with THP-1 cells, the “THP-1 Cell Ratio CC50” value was above 50.00 µM.
As for `COc1ccc(NC2=C3NC(=O)C(C)=CC=CC(C)C(O)C(C)C(O)C(C)C(OC(C)=O)C(C)C(OC)C=COC4(C)Oc5c(C)c(OC(=O)c6ccc(C)cc6)c(c(c5C4=O)C2=O)C3=O)cc1` (centres unmarked) [BMD-NP-02085], the IC50 came to 1.76 ± 0.28 µM in [1] and 1.76 ± 0.85 µM in [2]. In addition, in [2], the “Selectivity Index (SI)” value is 7.5 and 7.4. The “THP-1 Cell Ratio CC50” value with THP-1 cells was 13.07 µM and 13.07 ± 0.56 µM.
For `COc1cc(C=C2Oc3c(ccc4c3C(c3ccnn3C(C)C)CC(=O)O4)C2=O)cc(OC)c1OC` (centres unmarked) [BMD-NP-01586], in [1], the concentration for half-maximal inhibition (IC50) stood at 36.3 ± 0.42 µM. Further, in series [2], the concentration for half-maximal inhibition (IC50) came out at 2.97 ± 0.33 µM and the “Selectivity Index (SI)” value is reported as 12.4. Further, in the series with THP-1 cells, the “THP-1 Cell Ratio CC50” value amounted to 36.90 ± 1.13 µM.
For `O=c1cc(-c2ccc(O)cc2)oc2cc(O)cc(O)c12` [apigenin, 4′,5,7-trihydroxyflavone], the half-inhibitory concentration (IC50) in series [4] is 2.3 µM. Further, the “reduction in hepatic parasites” value in the series on hepatic parasites is reported as 99.7%.
For `O[C@H]1[C@H]2c3cc4c(cc3CN3CCC(=C[C@@H]1O)[C@H]23)OCO4` [BMD-NP-01077, Lycorine], the 50% inhibitory concentration (IC50) in series [1] was determined as 6.99 ± 0.74 µM. In [2], the half-inhibitory concentration (IC50) came to 2.63 ± 0.57 µM and the “Selectivity Index (SI)” value is above 19.0. In addition, in the series on THP-1 cells, the “THP-1 Cell Ratio CC50” value is recorded as above 50.00 µM.
For `COc1ccc(CCOc2cc([C@@H]3CC(=O)Oc4cc(O)c5c(=O)cc(-c6ccc(O)c(O)c6)oc5c43)ccc2OC)cc1` [BMD-NP-02255], the concentration for half-maximal inhibition (IC50) in [1] came to 45.9 ± 1.09 µM; in series [2], 4.9 ± 0.65 µM. Further, in the series on THP-1 cells, the “THP-1 Cell Ratio CC50” value was above 50.00 µM.
In the case of `O=C1C[C@H](c2cccnc2)c2c(cc(O)c3c(=O)c(-c4ccc(Cl)cc4)coc23)O1` [BMD-NP-01559], the IC50 in [1] worked out at 19.08 ± 0.13 µM. Further, in series [2], the half-maximal inhibitory concentration (IC50) came to 2.37 ± 0.49 µM and the “Selectivity Index (SI)” value was above 21.1. Also, in the series on THP-1 cells, the “THP-1 Cell Ratio CC50” value is on record as above 50.00 µM.
Take `CCCCCCC/C=C/C=C/C(=O)NCCc1ccc(O)cc1` [dodeca-2E,4E-dienoic acid 4-hydroxy-2-phenylethylamide]: the 50% inhibitory concentration (IC50) in the series with L. donovani amastigotes [5] is 13.3 µM; in the series with Trypanosoma brucei, 7.17 µM; in the series with T. cruzi, 5.97 µM.
Take `CO[C@H]1/C=C/O[C@@]2(C)Oc3c(C)c(O)c4c(O)c(cc(O)c4c3C2=O)NC(=O)/C(C)=C\C=C\[C@H](C)[C@H](O)[C@@H](C)[C@@H](O)[C@@H](C)[C@H](OC(C)=O)[C@@H]1C` [Rifamycin]: in series [6], the “binding constant for eukaryotic RNA polymerase relative to prokaryotic RNA polymerase” value is 100 times.
With `COc1cc([C@@H]2CC(=O)Oc3ccc4c(=O)c(-c5ccccc5)coc4c32)ccc1O` [BMD-NP-01555], the IC50 in series [1] was 12.9 ± 0.28 µM; in [2], 2.2 ± 0.29 µM. Moreover, the “THP-1 Cell Ratio CC50” value in the series with THP-1 cells is above 50.00 µM.
With `COc1ccc([C@H]2CC(=O)Oc3ccc4c(c32)O/C(=C\c2cc(OC)c(OC)cc2OC)C4=O)cc1O` [BMD-NP-01562], the concentration for half-maximal inhibition (IC50) in [1] is 9.88 ± 0.71 µM. Besides, in [2], the IC50 was 5.1 ± 0.34 µM and the “Selectivity Index (SI)” value is on record as above 9.8. Moreover, in the series on THP-1 cells, the “THP-1 Cell Ratio CC50” value was above 50.00 µM.
Consider `CCCCOc1ccc(C(=O)Oc2c(C)c3c4c5c2C(=O)C(=C(N2CCCCC2)C5=O)NC(=O)C(C)=CC=CC(C)C(O)C(C)C(O)C(C)C(OC(C)=O)C(C)C(OC)C=COC(C)(O3)C4=O)cc1` (centres unmarked) [BMD-NP-02070], for which the IC50 in series [1] worked out at 29.9 ± 1.27 µM; in series [2] it was 3.34 ± 0.42 µM. Besides, in series [2], the “Selectivity Index (SI)” value is given as above 15.0.
